Patent US20090082713A1, “METHOD OF ENHANCING IONTOPHORETIC DELIVERY OF A PEPTIDE” (priority 2007, published 2009)
Like-named read-outs stand apart in the source and are kept apart here.

What was measured:
[1] = In vivo iontophoretic delivery of salmon calcitonin across skin microporated with maltose microneedles, serum SCT by ELISA; design: species or system hairless rat; conditions: for increase in concentration compared to delivery with microneedles alone: p<0.05; for increase in concentration compared to delivery with microneedles alone / Cmax / total amount of SCT delivered: hairless rat; for Cmax: hairless, rat, serum, topical or ocular, 350 µg, read-out: maximum concentration of SCT in the serum; for total amount of SCT delivered: calculated by WinNonlin
Protocol: • Purpose: To determine the effect of iontophoresis and its combination with microneedles on the in vivo delivery of salmon calcitonin (SCT) as a model peptide. • Methods: Microneedles, iontophoresis and the combination were investigated for their effect on the transdermal delivery of SCT in vivo using the hairless rat. SCT (350 μl of a 1 mg/ml solution in 50 mM citrate buffer, pH 4.0) was placed in a cartridge designed for iontophoresis. Maltose microneedles (500 micron, Texmac Inc.), stacked in three layers, were used to porate the skin prior to the application of the drug with or without iontophoresis. […] Transport of drug across the skin was assessed by collecting blood samples at regular intervals via the tail vein which were analyzed for serum SCT using ELISA. • Results: The maximum concentrations of SCT in the serum were 41.45 pg/ml, 605.21 pg/ml, and 2374.06 pg/ml under microneedles alone, 1 hr iontophoresis alone, and the combination, respectively. When compared to the delivery with microneedles alone, the increase in concentration with iontophoresis alone was 15-fold (p<0.05) and with the combination of microneedles the increase was 57-fold (p<0.05). The total amount of SCT delivered by iontophoresis and its combination with microneedles in the hairless rat was 648.67 ng/kg and 3075.96 ng/kg, respectively, as calculated by WinNonlin. • Conclusion: Iontophoresis or a disruption of the skin barrier by microneedles enabled the transdermal delivery of SCT.

[2] = In vivo delivery of salmon calcitonin using iontophoresis in combination with microporation using titanium needle arrays; design: species or system hairless rat; conditions: titanium needle array microporation in combination with iontophoresis; 0.5 minutes after administration; FIG. 1C

With `CC(C)C[C@H](NC(=O)[C@H](CCCCN)NC(=O)CNC(=O)[C@H](CC(C)C)NC(=O)[C@@H](NC(=O)[C@@H]1CSSC[C@H](N)C(=O)N[C@@H](CO)C(=O)N[C@@H](CC(N)=O)C(=O)N[C@@H](CC(C)C)C(=O)N[C@@H](CO)C(=O)N[C@@H]([C@@H](C)O)C(=O)N1)C(C)C)C(=O)N[C@@H](CO)C(=O)N[C@@H](CCC(N)=O)C(=O)N[C@@H](CCC(=O)O)C(=O)N[C@@H](CC(C)C)C(=O)N[C@@H](Cc1c[nH]cn1)C(=O)N[C@@H](CCCCN)C(=O)N[C@@H](CC(C)C)C(=O)N[C@@H](CCC(N)=O)C(=O)N[C@H](C(=O)N[C@@H](Cc1ccc(O)cc1)C(=O)N1CCC[C@H]1C(=O)N[C@@H](CCCNC(=N)N)C(=O)N[C@H](C(=O)N[C@@H](CC(N)=O)C(=O)N[C@H](C(=O)NCC(=O)N[C@@H](CO)C(=O)NCC(=O)N[C@H](C(=O)N1CCC[C@H]1C(N)=O)[C@@H](C)O)[C@@H](C)O)[C@@H](C)O)[C@@H](C)O` [SCT, salmon calcitonin] the “increase in concentration compared to delivery with microneedles alone” value ([1]; combination of iontophoresis and microneedles vs microneedles alone) was 57 fold, the Cmax ([1]; pH 4, transdermal, 1 hr iontophoresis alone (0.2 mA/cm^2), 350 μl of 1 mg/ml SCT, pH 4.0) was 0.605 ng/mL and the Cmax ([1]; pH 4, transdermal, maltose microneedles alone, 350 μl of 1 mg/ml SCT in 50 mM citrate buffer pH 4.0) was 0.0415 ng/mL. For the same compound, the Cmax ([1]; transdermal, combination of maltose microneedles and 1 hr iontophoresis (0.2 mA/cm^2)) was 2.37 ng/mL, the “increase in concentration compared to delivery with microneedles alone” value ([1]; iontophoresis alone vs microneedles alone) was 15 fold and the “total amount of SCT delivered” value ([1]; iontophoresis alone) was 648.67 ng/kg. The “total amount of SCT delivered” value ([1]; iontophoresis in combination with microneedles) was 3075.96 ng/kg, the “increase in amount of protein that permeated the skin compared to iontophoresis alone” value ([1]; microneedle treatment combined with iontophoresis vs iontophoresis alone, hairless rat model) was “about four” and the “plasma concentration of SCT relative to microporation or iontophoresis alone” value [2] was “about 10 fold”.
